Assay results: ChEMBL document CHEMBL2406915, “Antimalarial and cytotoxic activities of chiral triamines” (Bioorg Med Chem Lett, 2013)
Converted amounts (≈) assume the structure as drawn.

Experiments:
Plasmodium falciparum = assay: Antimalarial activity against […] Plasmodium falciparum 3D7; format: functional, organism-based; conditions: for EC50: read-out: ED50 (the source's name)
[1] = Cytotoxicity against human KB cells; format: cell-based; conditions: read-out: ED50 (the source's name)
[2] = Toxicity index, ratio of ED50 for human KB cells to ED50 for […] Plasmodium falciparum 3D7; format: cell-based; conditions: KB cells versus Plasmodium falciparum 3D7, read-out: Ratio ED50

`CNC[C@H](Cc1ccc2ccccc2c1)NC[C@@H](Cc1ccc2ccccc2c1)NCCc1ccc(Cl)c(Cl)c1` showed an EC50 (Plasmodium falciparum) of 0.24 µg/mL (≈ 0.421 µM), a CC50 [1] of 5.53 µg/mL (≈ 9.69 µM) and a selectivity ratio [2] of 23.

In the case of `CCOc1ccc(CCN[C@H](CN[C@H](CNC)Cc2ccc3ccccc3c2)Cc2ccc3ccccc3c2)cc1`, the EC50 (Plasmodium falciparum) is reported as 0.12 µg/mL (≈ 0.22 µM), the CC50 [1] is reported as 3.23 µg/mL (≈ 5.92 µM) and the selectivity ratio [2] is reported as 26.

`CNC[C@H](Cc1ccc2ccccc2c1)NC[C@H](Cc1ccc2ccccc2c1)NCC1(c2ccccc2)CC1` showed an EC50 (Plasmodium falciparum) of 0.05 µg/mL (≈ 0.0947 µM), a CC50 [1] of 2.18 µg/mL (≈ 4.13 µM) and a selectivity ratio [2] of 43.5.

With `CNC[C@@H](CC1CCCCC1)NC[C@@H](Cc1ccc2ccccc2c1)NCC(C)c1ccc(CC(C)C)cc1` (stereo not given in full) the EC50 (Plasmodium falciparum) was 0.29 µg/mL (≈ 0.549 µM), the CC50 [1] was 7.01 µg/mL (≈ 13.3 µM) and the selectivity ratio [2] was 24.1.

In the case of `CNC[C@@H](CC1CCCCC1)NC[C@H](Cc1ccc2ccccc2c1)NCCC1CCCCC1`, the EC50 (Plasmodium falciparum) is reported as 0.11 µg/mL (≈ 0.237 µM) and the CC50 [1] is reported as 0.11 µg/mL (≈ 0.237 µM).

Work on `CNC[C@@H](Cc1ccc2ccccc2c1)NC[C@H](Cc1ccc2ccccc2c1)NCC1(c2ccccc2)CC1` yielded an EC50 (Plasmodium falciparum) of 0.29 µg/mL (≈ 0.549 µM), a CC50 [1] of 1.43 µg/mL (≈ 2.71 µM) and a selectivity ratio [2] of 4.93.

Work on `CNC[C@H](Cc1ccc2ccccc2c1)NC[C@@H](Cc1ccc2ccccc2c1)NCC1CCC(C)CC1` (stereo not given in full) yielded an EC50 (Plasmodium falciparum) of 0.1 µg/mL (≈ 0.197 µM), a CC50 [1] of 2.03 µg/mL (≈ 4 µM) and a selectivity ratio [2] of 20.3.

In the case of `C[C@H]1[C@H](OC(=O)CCC(=O)O)O[C@@H]2O[C@@]3(C)CC[C@H]4[C@H](C)CC[C@@H]1[C@@]24OO3` [ARTESUNATE], the IC50 (Plasmodium falciparum) is reported as 0.002 µg/mL (≈ 0.0052 µM).

Compound `CCOc1ccc(CCN[C@H](CN[C@@H](CNC)CC2CCCCC2)Cc2ccc3ccccc3c2)cc1` has an EC50 (Plasmodium falciparum) of 0.16 µg/mL (≈ 0.319 µM), a CC50 [1] of 3.1 µg/mL (≈ 6.18 µM) and a selectivity ratio [2] of 19.3.

In the case of `CNC[C@@H](Cc1ccccc1)NC[C@H](Cc1ccc2ccccc2c1)NCC1(c2ccccc2)CC1`, the EC50 (Plasmodium falciparum) is reported as 0.22 µg/mL (≈ 0.461 µM), the CC50 [1] is reported as 0.52 µg/mL (≈ 1.09 µM) and the selectivity ratio [2] is reported as 2.36.

In the case of `CNC[C@H](Cc1ccc2ccccc2c1)NC[C@H](Cc1ccc2ccccc2c1)NCC(C)c1ccc(CC(C)C)cc1` (stereo not given in full), the EC50 (Plasmodium falciparum) is reported as 0.18 µg/mL (≈ 0.315 µM), the CC50 [1] is reported as 2.09 µg/mL (≈ 3.65 µM) and the selectivity ratio [2] is reported as 11.6.

With `CNC[C@@H](CC1CCCCC1)NC[C@H](Cc1ccc2ccccc2c1)NCC1CCC(C)CC1` (stereo not given in full) the EC50 (Plasmodium falciparum) was 0.1 µg/mL (≈ 0.216 µM), the CC50 [1] was 6.9 µg/mL (≈ 14.9 µM) and the selectivity ratio [2] was 69.

In the case of `CNC[C@H](Cc1ccc2ccccc2c1)NC[C@@H](Cc1ccc2ccccc2c1)NCC(C)c1ccc(CC(C)C)cc1` (stereo not given in full), the EC50 (Plasmodium falciparum) is reported as 0.13 µg/mL (≈ 0.227 µM), the CC50 [1] is reported as 1.71 µg/mL (≈ 2.99 µM) and the selectivity ratio [2] is reported as 13.

Compound `CNC[C@@H](Cc1ccccc1)NC[C@@H](Cc1ccc2ccccc2c1)NCC1CCC(C)CC1` (stereo not given in full) has an EC50 (Plasmodium falciparum) of 0.22 µg/mL (≈ 0.481 µM), a CC50 [1] of 1.73 µg/mL (≈ 3.78 µM) and a selectivity ratio [2] of 8.23.

In the case of `CNC[C@H](Cc1ccc2ccccc2c1)NC[C@@H](Cc1ccc2ccccc2c1)NCC1(c2ccccc2)CC1`, the EC50 (Plasmodium falciparum) is reported as 0.05 µg/mL (≈ 0.0947 µM), the CC50 [1] is reported as 1.6 µg/mL (≈ 3.03 µM) and the selectivity ratio [2] is reported as 32.

`CNC[C@@H](CC1CCCCC1)NC[C@@H](Cc1ccc2ccccc2c1)NCCC1CCCCC1` showed an EC50 (Plasmodium falciparum) of 0.14 µg/mL (≈ 0.302 µM), a CC50 [1] of 1.59 µg/mL (≈ 3.43 µM) and a selectivity ratio [2] of 11.3.

`CNC[C@@H](CC1CCCCC1)NC[C@H](Cc1ccc2ccccc2c1)NCC1(c2ccccc2)CC1` showed an EC50 (Plasmodium falciparum) of 0.11 µg/mL (≈ 0.227 µM), a CC50 [1] of 1.71 µg/mL (≈ 3.53 µM) and a selectivity ratio [2] of 15.7.

With `CNC[C@@H](CC1CCCCC1)NC[C@@H](Cc1ccc2ccccc2c1)NCCc1ccc(Cl)c(Cl)c1` the EC50 (Plasmodium falciparum) was 0.22 µg/mL (≈ 0.418 µM), the CC50 [1] was 4.23 µg/mL (≈ 8.03 µM) and the selectivity ratio [2] was 19.2.

For `CNC[C@H](Cc1ccc2ccccc2c1)NC[C@H](Cc1ccc2ccccc2c1)NCCC1CCCCC1`, the EC50 (Plasmodium falciparum) was 0.02 µg/mL (≈ 0.0394 µM), the CC50 [1] was 1.77 µg/mL (≈ 3.49 µM) and the selectivity ratio [2] was 88.5.

With `CNC[C@@H](Cc1ccccc1)NC[C@@H](Cc1ccc2ccccc2c1)NCC1(c2ccccc2)CC1` the EC50 (Plasmodium falciparum) was 0.28 µg/mL (≈ 0.586 µM), the CC50 [1] was 1.53 µg/mL (≈ 3.2 µM) and the selectivity ratio [2] was 5.46.

Work on `CNC[C@H](Cc1ccc2ccccc2c1)NC[C@@H](Cc1ccc2ccccc2c1)NCCC1CCCCC1` yielded an EC50 (Plasmodium falciparum) of 0.09 µg/mL (≈ 0.177 µM), a CC50 [1] of 1.6 µg/mL (≈ 3.15 µM) and a selectivity ratio [2] of 17.7.
